These results are taken from patent US5624906A, “Oral hygiene compositions comprising heteroatom containing alkyl aldonamide compounds” (Lever Brothers Company, Division of Conopco, Inc., priority 1994, dated 1997).

Data set [1] is described as follows: Krafft point. Type of data set: physicochemical. The note with it: for Krafft Point (0.1%): 0.1% in water; for Krafft Point (1.0%): 1.0% in water. As to the method:
The temperature at and above which surfactants begin to form micelles instead of precipitates is referred to as the Krafft point (Tk) and at this temperature the solubility of a surfactant becomes equal to its CMC (numerical value at which micelles are formed).
The Krafft point was measured by preparing 650 ml of a 0.1% or 1.0% dispersion of aldonamide in water by weight. If the surfactant was soluble at room temperature, the solution was slowly cooled to 0° C. […] (less than zero). If it precipitated out of solution, the temperature at which precipitation occurs was taken as the Krafft point.
If the surfactant was insoluble at room temperature, the dispersion was slowly heated until the solution became homogeneous. It was then slowly cooled until precipitation occurred. The temperature at which the surfactant precipitates out of solution upon cooling was taken as the Krafft point.

The nature of data set [2]: Ross-Miles foam height (Examples 81-84). In kind it is physicochemical. The conditions noted are these: for Foam Height Initial / Foam Height Final: 0.1% aldonamide, 40° C. (or 5-10° C. above Krafft point), 0 ppm hardness; for Foam Height Final: after 10 minutes; for Solubility: 0.1% in water. As to the method: In the Ross-Miles method, 200 mL of a surfactant solution contained in a pipette of specified dimensions with a 2.9-mm-i.d. orifice is allowed to fall 90 cm onto 50 mL of the same solution contained in a cylindrical vessel maintained at a given temperature by means of a water jacket. The height of the foam produced in the cylindrical vessel is read immediately after all the solution has run out of the pipette and then again after a given amount of time.
Using this method, the foam production (initial foam height in mm) and foam stability (final foam height after 10 minutes in mm) were measured at 0.1% aldonamide concentration, 40° C. and 0 ppm (parts per million) hardness.

For the molecule `CCCCCCCCCCCCOC(=O)C(C)NC(=O)[C@H](O)[C@@H](O)[C@H](O)[C@H](O)CO` (mixture of isomers) [N-D-Gluconyl C12 DL-Alaninate, N-D-Gluconyl Dodecyl DL-Alaninate], in data set [1], the “Krafft Point (0.1%)” value stood at 53 °C. On to `CCCCCCCNC(=O)[C@H](O)[C@@H](O)[C@H](O)[C@H](O)CO` [C7 D-Gluconamide], for which the “Krafft Point (0.1%)” value in data set [1] is under 0 °C. Besides, in data set [2], the “Foam Height Initial” value came to 0 mm and the “Foam Height Final” value is reported as 0 mm. Take `CCCCCCCCNC(=O)[C@H](O)[C@@H](O)[C@H](O)[C@H](O)CO` [C8 D-Gluconamide]: the “Krafft Point (0.1%)” value in data set [1] amounted to 12 °C. For the same molecule, in data set [2], the “Foam Height Initial” value was 0 mm and the “Foam Height Final” value came to 0 mm.

On to `CCCCCCCCCNC(=O)[C@H](O)[C@@H](O)[C@H](O[C@@H]1O[C@H](CO)[C@H](O)[C@H](O)[C@H]1O)[C@H](O)CO` [C9 D-Lactobionamide, nonyl D-lactobionamide], for which the “Krafft Point (1.0%)” value in data set [1] amounted to 42 °C. For the same molecule, in data set [2], the “Foam Height Initial” value is recorded as 0 mm and the “Foam Height Final” value is reported as 0 mm. On to `CCCCCCCCCCCNC(=O)[C@H](O)[C@@H](O)[C@H](O)[C@H](O)CO` [C11 D-Gluconamide], for which the “Krafft Point (0.1%)” value in data set [1] stood at 87 °C. As for `CCCCCCCCCCCNC(=O)[C@H](O)[C@@H](O)[C@H](O[C@@H]1O[C@H](CO)[C@H](O)[C@H](O)[C@H]1O)[C@H](O)CO` [C11 D-Lactobionamide], the “Krafft Point (1.0%)” value in data set [1] was 61 °C. Moreover, in data set [2], the “Foam Height Initial” value came to 0 mm and the “Foam Height Final” value was 0 mm. Regarding `CCCCCCCCCCCCNC(=O)[C@H](O)[C@@H](O)[C@@H](O)[C@H](O)CO` [C12 D-Galactonamide], the “Krafft Point (0.1%)” value in data set [1] was over 100 °C. In data set [2], the “Solubility” value is reported as “Insoluble”.

In the case of `CCCCCCCCCCCCNC(=O)[C@H](O)[C@H](O)[C@@H](O)[C@H](O)[C@H](O)CO` [C12 D-Glucoheptonamide], the “Krafft Point (0.1%)” value in data set [1] was found to be 91 °C. Consider `CCCCCCCCCCCCNC(=O)C(O)C(O)C(O)C(O)C(O)C(O)CO` [C12 D-Glucooctonamide], for which the “Krafft Point (0.1%)” value in data set [1] was under 86 °C.

With `CCCCCCCCCCCCNC(=O)[C@H](O)[C@H](O)[C@@H](O)[C@@H](O)[C@H](O)CO` [C12 D-Glycero-L-Mannoheptonamide], the “Krafft Point (0.1%)” value in data set [1] was over 100 °C. Also, the “Solubility” value in data set [2] is reported as “Insoluble”. `CCCCCCCCCCCCNC(=O)[C@H](O)[C@@H](O)[C@H](O[C@@H]1O[C@H](CO)[C@H](O)[C@H](O)[C@H]1O)[C@H](O)CO` [C12 D-Lactobionamide]: in data set [1], the “Krafft Point (1.0%)” value was found to be 38 °C. The “Foam Height Final” value in data set [2] turned out to be 20 mm. For the molecule `CCCCCCCCCCCCNC(=O)[C@@H](O)[C@H](O)[C@H](O)[C@@H](O)CO` [C12 L-Galactonamide], in data set [1], the “Krafft Point (0.1%)” value was over 100 °C. In data set [2], the “Solubility” value was “Insoluble”. Consider `CCCCCCCCCCCCNC(=O)[C@@H](O)[C@H](O)[C@@H](O)[C@@H](O)CO` [C12 L-Gluconamide], for which, in data set [1], the “Krafft Point (0.1%)” value amounted to 91 °C. On to `CCCCCCCCCCCCNC(=O)[C@H](O)[C@H](O)[C@@H](O)[C@@H](O)CO` [C12 L-Mannonamide], for which the “Krafft Point (0.1%)” value in data set [1] was over 100 °C. Besides, the “Solubility” value in data set [2] was “Insoluble”.

With `CCCCCCCCCCCCOCCCNC(=O)[C@H](O)[C@H](O)[C@@H](O)[C@H](O)[C@H](O)CO` [C12 Oxypropyl D-Glucoheptonamide], the “Krafft Point (0.1%)” value in data set [1] worked out at 73 °C. The “Foam Height Final” value in data set [2] stood at 80 mm. On to `CCCCCCCCCCCCOCCCNC(=O)[C@H](O)[C@@H](O)[C@H](O[C@H]1O[C@H](CO)[C@@H](O)[C@H](O)[C@H]1O)[C@H](O)CO` [C12 Oxypropyl D-Maltobionamide, dodecyloxypropyl D-maltobionamide], for which the “Krafft Point (1.0%)” value in data set [1] is under 0 °C. On to `CCCCCCCCCCCCNC(=O)[C@H](O)[C@H](O)[C@H](O)CO` [C12 Ribonamide, dodecyl D-ribonamide], for which the “Krafft Point (0.1%)” value in data set [1] stood at 54 °C. For `CCCCCCCCCCCCCNC(=O)[C@H](O)[C@@H](O)[C@H](O[C@@H]1O[C@H](CO)[C@H](O)[C@H](O)[C@H]1O)[C@H](O)CO` [C13 D-Lactobionamide], in data set [1], the “Krafft Point (1.0%)” value was 70 °C. In addition, in data set [2], the “Foam Height Final” value came out at 78 mm. As for `CCCCCCCCCCCCCCNC(=O)[C@H](O)[C@@H](O)[C@H](O)[C@H](O)CO` [C14 D-Gluconamide], the “Krafft Point (0.1%)” value in data set [1] is over 100 °C. Moreover, the “Solubility” value in data set [2] is reported as “Insoluble”. For the molecule `CCCCCCCCCCCCCCNC(=O)[C@H](O)[C@@H](O)[C@H](O[C@@H]1O[C@H](CO)[C@H](O)[C@H](O)[C@H]1O)[C@H](O)CO` [C14 D-Lactobionamide], the “Krafft Point (1.0%)” value in data set [1] was found to be 18 °C. Moreover, the “Foam Height Final” value in data set [2] is given as 59 mm.

With `CCCCCCCCCCCCCCNC(=O)[C@H](O)[C@@H](O)[C@H](O[C@H]1O[C@H](CO)[C@@H](O)[C@H](O)[C@H]1O)[C@H](O)CO` [C14 D-Maltobionamide], in data set [1], the “Krafft Point (1.0%)” value is 46 °C. Besides, the “Foam Height Final” value in data set [2] is recorded as 140 mm. As to `CCCCCCCCCCCCCCOCCCNC(=O)[C@H](O)[C@@H](O)[C@H](O)[C@H](O)CO` [C14 Oxypropyl D-Gluconamide], in data set [1], the “Krafft Point (0.1%)” value worked out at 53 °C. In the case of `CCCCCCCCCCCCCCOCCCNC(=O)[C@H](O)[C@@H](O)[C@H](O[C@@H]1O[C@H](CO)[C@H](O)[C@H](O)[C@H]1O)[C@H](O)CO` [C14 Oxypropyl D-Lactobionamide, tetradecyloxypropyl D-lactobionamide], in data set [1], the “Krafft Point (1.0%)” value was under 0 °C.

Turning to `CCCCCCCCCCCCCCCNC(=O)[C@H](O)[C@@H](O)[C@H](O[C@@H]1O[C@H](CO)[C@H](O)[C@H](O)[C@H]1O)[C@H](O)CO` [C15 D-Lactobionamide], in data set [1], the “Krafft Point (1.0%)” value was 84 °C. As for `CCCCCCCCCCCCCCCCNC(=O)[C@H](O)[C@@H](O)[C@H](O)[C@H](O)CO` [C16 D-Gluconamide], the “Krafft Point (0.1%)” value in data set [1] was over 100 °C. Also, the “Solubility” value in data set [2] is “Insoluble”.

With `CCCCCCCCCCCCCCCCNC(=O)[C@H](O)[C@@H](O)[C@H](O[C@@H]1O[C@H](CO)[C@H](O)[C@H](O)[C@H]1O)[C@H](O)CO` [C16 D-Lactobionamide], the “Krafft Point (1.0%)” value in data set [1] worked out at 64 °C. Besides, in data set [2], the “Foam Height Initial” value was 95 mm and the “Foam Height Final” value is 95 mm. As to `CCCCCCCCCCCCCCCCCCNC(=O)[C@H](O)[C@@H](O)[C@H](O)[C@H](O)CO` [C18 D-Gluconamide], the “Krafft Point (0.1%)” value in data set [1] is over 100 °C. Moreover, the “Solubility” value in data set [2] is “Insoluble”.

With `CCCCCCCCCCCCCCCCCCNC(=O)[C@H](O)[C@@H](O)[C@H](O[C@@H]1O[C@H](CO)[C@H](O)[C@H](O)[C@H]1O)[C@H](O)CO` [C18 D-Lactobionamide], the “Krafft Point (1.0%)” value in data set [1] was found to be 82 °C. As to `CCCCCCCCCCCCOC(=O)CNC(=O)[C@H](O)[C@@H](O)[C@H](O[C@@H]1O[C@H](CO)[C@H](O)[C@H](O)[C@H]1O)[C@H](O)CO` [D-Lactobionyl C12 Glycinate, N-D-lactobionyl dodecyl glycinate], the “Krafft Point (1.0%)” value in data set [1] was under 0 °C. Regarding `CCCCCCCCCCCCOC(=O)CCNC(=O)[C@H](O)[C@@H](O)[C@H](O[C@@H]1O[C@H](CO)[C@H](O)[C@H](O)[C@H]1O)[C@H](O)CO` [D-Lactobionyl C12 β-Alaninate, N-D-lactobionyl dodecyl β-alaninate], the “Krafft Point (1.0%)” value in data set [1] is under 0 °C.

Consider `CCCCC(CC)COCCCNC(=O)[C@H](O)[C@@H](O)[C@H](O)[C@H](O)CO` (stereo partly drawn) [Ethylhexyloxypropyl D-Gluconamide], for which, in data set [1], the “Krafft Point (0.1%)” value was under 0 °C. Further, in data set [2], the “Foam Height Initial” value is 0 mm and the “Foam Height Final” value was determined as 0 mm. Regarding `CCCCCCCCCCCCOCCOCCOC(=O)CNC(=O)[C@H](O)[C@@H](O)[C@H](O)[C@H](O)CO` [N-D-Gluconyl C12 Di(oxyethyl) Glycinate, N-D-Gluconyl Dodecyldi(oxyethyl) Glycinate], the “Krafft Point (0.1%)” value in data set [1] is under 0 °C. With `CCCCCCCCCCCC(=O)OCCNC(=O)[C@H](O)[C@@H](O)[C@H](O)[C@H](O)CO` [N-D-Gluconyl C12 Ester of Ethanolamine, N-D-gluconyl dodecyl ester of ethanolamine], the “Krafft Point (0.1%)” value in data set [1] is 63 °C. On the same count and under the same terms, the figure for `CCCCCCCCCCCCOC(=O)CNC(=O)[C@H](O)[C@@H](O)[C@H](O)[C@H](O)CO` [N-D-Gluconyl C12 Glycinate, N-D-gluconyl dodecyl glycinate] is 63 °C. Regarding `CCCCCCCC/C=C\CCCCCCCCNCCCNC(=O)[C@H](O)[C@@H](O)[C@H](O)[C@H](O)CO` [Oleylaminopropyl D-Gluconamide, oleylaminopropyl D-gluconamide], in data set [1], the “Krafft Point (0.1%)” value is under 0 °C. Further, in data set [2], the “Foam Height Final” value was 84 mm.

With `CCCCCCCC/C=C\CCCCCCCCNCCCNC(=O)[C@H](O)[C@@H](O)[C@H](O[C@@H]1O[C@H](CO)[C@H](O)[C@H](O)[C@H]1O)[C@H](O)CO` [Oleylaminopropyl D-Lactobionamide, oleylaminopropyl D-lactobionamide], the “Krafft Point (1.0%)” value in data set [1] was under 0 °C. Turning to soyaaminopropyl D-gluconamide, the “Krafft Point (0.1%)” value in data set [1] is under 18 °C.
